# Reference: article PMC7570662, “In Vivo Pharmacokinetic Analysis Utilizing Non-Targeted and Targeted Mass Spectrometry and In Vitro Assay against Transient Receptor Potential Channels of Maobushisaishinto and Its Constituent Asiasari Radix” (Molecules, 2020)
# Assays:
# human TRPA1 = biological target: T1, human TRPA1 (Homo sapiens, UniProt O75762); assay: Ca2+ influx assay in TRPA1-expressing T-REx-293 cells; assay type: cell-based; conditions: 10 µmol/L test compound, relative to 20 µmol/L allyl isothiocyanate; for activation at 10 µM: T-REx-293, read-out: % of Activation Compared to Positive Control against Each Subfamily of TRP Channel TRPA1
# T1 construct: Each full-length human TRPA1, TRPV1, TRPV4, and TRPM8 coding regions were introduced into a pcDNA4/TO vector; expressed in transfected cells; host or cells: T-REx-293 cells (tetracycline-induced, pcDNA4/TO vector)
# Method: (§1) Each full-length human TRPA1, TRPV1, TRPV4, and TRPM8 coding regions were introduced into a pcDNA4/TO vector (Thermo Fisher Scientific, Waltham, MA, USA) and transfected into T-REx-293 cells (Thermo Fisher Scientific) to obtain stable cell lines expressing human TRPA1, TRPV1, TRPV4, and TRPM8. Cells were cultured in DMEM with 10% FBS, 4 mmol/L L-glutamine, and penicillin/streptomycin.
# (§2) Cells were suspended in medium with 1 µg/mL tetracycline and seeded in poly-D-lysine coated 96-well plate at 2.5 × 10^4 cells/well. After overnight culture, the cells were used for Ca^2+ influx assay.
# (§3) The Ca^2+ influx assay was performed using a FLIPR Calcium 5 Assay Kit (Molecular Devices, Sunnyvale, CA, USA) according to previously reported methods with minor modifications. In brief, cells were incubated with 80 µL Ca^2+-chelating dye dissolved in assay buffer at pH 7.4 (Hanks’ Balanced Salt Solution containing 20 mmol/L of N-2-hydroxyethylpiperazine-N’-2-ethanesulfonic acid) at room temperature for 30 min. The plates were assayed using a FlexStation 3 Microplate Reader (Molecular Devices). The fluorescence intensity was traced entirely for 80 s. The baseline of fluorescence was measured for 20 s before adding 20 µL of test compound (final concentration, 10 µmol/L). The response was expressed as percentage activation using the relative fluorescence units (RFU) (% activation = 100 × ((RFUmax − RFUbaseline)/RFUbaseline) − 100). Furthermore, the activities of each test compound against several subfamilies of TRP channels were represented as the relative enhancement of Ca^2+ influx of each positive control, indicated as follows: 20 µmol/L of allyl isothiocyanate (an agonist of TRPA1), 2 µmol/L of capsaicin (an agonist of TRPV1), 4 µmol/L of GSK1016790A (an agonist of TRPV4), and 20 µmol/L of icilin (an agonist of TRPM8). The dose–response curve was fitted to the sigmoidal dose-response equation (top, the max response of each compound), and EC50 values were calculated using GraphPad Prism 7 software (GraphPad, San Diego, CA, USA).
# human TRPV1 = biological target: T2, human TRPV1 (Homo sapiens, UniProt Q8NER1); assay: Ca2+ influx assay in TRPV1-expressing T-REx-293 cells; assay type: cell-based; conditions: 10 µmol/L test compound, relative to 2 µmol/L capsaicin; for activation at 10 µM: T-REx-293, read-out: % of Activation Compared to Positive Control against Each Subfamily of TRP Channel TRPV1
# T2 construct: Each full-length human TRPA1, TRPV1, TRPV4, and TRPM8 coding regions were introduced into a pcDNA4/TO vector; expressed in transfected cells; host or cells: T-REx-293 cells (tetracycline-induced, pcDNA4/TO vector)
# Method: as §1, §2, §3
# human TRPV4 = biological target: T3, human TRPV4 (Homo sapiens, UniProt Q9HBA0); assay: Ca2+ influx assay in TRPV4-expressing T-REx-293 cells; assay type: cell-based; conditions: 10 µmol/L test compound, relative to 4 µmol/L GSK1016790A; for activation at 10 µM: T-REx-293, read-out: % of Activation Compared to Positive Control against Each Subfamily of TRP Channel TRPV4
# T3 construct: Each full-length human TRPA1, TRPV1, TRPV4, and TRPM8 coding regions were introduced into a pcDNA4/TO vector; expressed in transfected cells; host or cells: T-REx-293 cells (tetracycline-induced, pcDNA4/TO vector)
# Method: as §1, §2, §3
# human TRPM8 = biological target: T4, human TRPM8 (Homo sapiens, UniProt Q7Z2W7); assay: Ca2+ influx assay in TRPM8-expressing T-REx-293 cells; assay type: cell-based; conditions: 10 µmol/L test compound, relative to 20 µmol/L icilin; for activation at 10 µM: T-REx-293, read-out: % of Activation Compared to Positive Control against Each Subfamily of TRP Channel TRPM8
# T4 construct: Each full-length human TRPA1, TRPV1, TRPV4, and TRPM8 coding regions were introduced into a pcDNA4/TO vector; expressed in transfected cells; host or cells: T-REx-293 cells (tetracycline-induced, pcDNA4/TO vector)
# Method: as §1, §2, §3
# [1] = Qualitative non-targeted LC-HRMS analysis of AR compounds in rat plasma after oral AR or MBST; assay type: in vivo; conditions: for AR-Treated Rat Plasma (detection of compound): rat plasma 1 h after oral 2 g/kg AR, n = 1, LC-HRMS
# Method: Extract powders of AR or MBST were suspended in distilled water and orally administered to rats having fasted for approximately 16 h. The dose of AR was set at 2 g/kg, and the MBST doses were set at 1 and 2 g/kg. 1 g/kg MBST contained 578 µg/kg, 147 µg/kg, 226 µg/kg, 426 µg/kg asarinin, sesamin, methyl kakuol, and amide A, respectively. The doses were chosen based on a previous pharmacological study of MBST using rats.
# According to previous pharmacokinetic studies of herbal medicines, many of the components were quickly absorbed into the bloodstream, thereby providing the rationale for a sampling time at 1 h. Blood was centrifuged at 1200× g at 4 °C for 30 min to obtain plasma; then, the sample was stored at −80 °C until LC-HRMS analysis. […]
# The plasma samples were collected at 1 h after MBST administration in case of both the qualitative (non-targeted) analysis and the quantitative (targeted) analysis.
# The plasma samples of AR- or MBST-treated rats collected at 1 h post-administration were pretreated by deproteinization using methanol before the LC-HRMS analysis as follows: 100 µL plasma sample was mixed with 500 µL methanol, and the resultant solution was vortexed for 2 min. The mixture was centrifuged at 7000× g at 4 °C for 5 min. The supernatant was dried using a centrifugal evaporator, and the dried residue was dissolved in 100 μL of the initial LC mobile phase which is composed of 0.1 vol% formic acid in water/acetonitrile (99.9/0.1, v/v) and recentrifuged at 7000× g at 4 °C for 5 min. Finally, a 5 μL aliquot of the supernatant was injected into the LC-HRMS system comprised of an Acquity Ultra-Performance Liquid Chromatography System (Waters, Milford, MA, USA) and a Xevo G2-XS quadrupole time-of-flight MS (Waters) and was chromatographically separated using an ACQUITY UPLC HSS T3 column (2.1 × 150 mm I.D., 1.8-μm particle size; Waters) with an ACQUITY UPLC HSS T3 VanGuard Pre-column (2.1 mm × 5 mm I.D., 1.8-μm particle size; Waters) at 40 °C. The mobile phase consisted of solution A (0.1% formic acid, v/v) and solution B (acetonitrile) with a gradient of solution B (0.1%, 0 min; 99%, 24 min; v/v) at a flow rate of 0.4 mL/min. The analysis of the mass spectrometer fit with an electrospray ionization probe with sensitivity mode was performed for both the positive and negative ion mode. The resolution of the mass spectrometer was set at >20,000. For MS^E experiments, two acquisition functions with different collision energies were created: a low-energy function with a collision energy of 6 eV and a high-energy function with collision energy ranging from 15 to 40 eV.
# T3 sequence (Q9HBA0 whole entry): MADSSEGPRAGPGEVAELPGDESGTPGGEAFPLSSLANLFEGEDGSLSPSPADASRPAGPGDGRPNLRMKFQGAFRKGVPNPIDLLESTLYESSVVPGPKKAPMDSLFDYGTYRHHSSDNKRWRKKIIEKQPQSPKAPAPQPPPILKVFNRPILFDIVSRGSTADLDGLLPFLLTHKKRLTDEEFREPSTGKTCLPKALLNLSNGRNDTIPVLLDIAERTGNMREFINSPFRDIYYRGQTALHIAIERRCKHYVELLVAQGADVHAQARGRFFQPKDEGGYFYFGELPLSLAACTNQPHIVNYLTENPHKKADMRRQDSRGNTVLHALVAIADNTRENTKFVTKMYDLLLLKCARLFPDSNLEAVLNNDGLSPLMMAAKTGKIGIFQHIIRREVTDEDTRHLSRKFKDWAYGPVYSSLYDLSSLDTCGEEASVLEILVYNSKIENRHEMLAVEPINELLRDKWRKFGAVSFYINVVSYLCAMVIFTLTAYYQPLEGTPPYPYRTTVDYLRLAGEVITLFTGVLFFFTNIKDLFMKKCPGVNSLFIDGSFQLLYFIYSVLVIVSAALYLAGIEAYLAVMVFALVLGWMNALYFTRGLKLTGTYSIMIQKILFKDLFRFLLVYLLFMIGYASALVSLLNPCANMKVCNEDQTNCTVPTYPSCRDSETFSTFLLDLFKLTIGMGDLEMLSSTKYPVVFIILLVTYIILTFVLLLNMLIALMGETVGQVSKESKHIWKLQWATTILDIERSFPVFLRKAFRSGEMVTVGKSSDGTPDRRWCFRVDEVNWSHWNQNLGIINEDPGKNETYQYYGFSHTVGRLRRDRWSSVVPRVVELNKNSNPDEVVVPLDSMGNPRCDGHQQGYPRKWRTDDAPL
# T4 sequence (Q7Z2W7 whole entry): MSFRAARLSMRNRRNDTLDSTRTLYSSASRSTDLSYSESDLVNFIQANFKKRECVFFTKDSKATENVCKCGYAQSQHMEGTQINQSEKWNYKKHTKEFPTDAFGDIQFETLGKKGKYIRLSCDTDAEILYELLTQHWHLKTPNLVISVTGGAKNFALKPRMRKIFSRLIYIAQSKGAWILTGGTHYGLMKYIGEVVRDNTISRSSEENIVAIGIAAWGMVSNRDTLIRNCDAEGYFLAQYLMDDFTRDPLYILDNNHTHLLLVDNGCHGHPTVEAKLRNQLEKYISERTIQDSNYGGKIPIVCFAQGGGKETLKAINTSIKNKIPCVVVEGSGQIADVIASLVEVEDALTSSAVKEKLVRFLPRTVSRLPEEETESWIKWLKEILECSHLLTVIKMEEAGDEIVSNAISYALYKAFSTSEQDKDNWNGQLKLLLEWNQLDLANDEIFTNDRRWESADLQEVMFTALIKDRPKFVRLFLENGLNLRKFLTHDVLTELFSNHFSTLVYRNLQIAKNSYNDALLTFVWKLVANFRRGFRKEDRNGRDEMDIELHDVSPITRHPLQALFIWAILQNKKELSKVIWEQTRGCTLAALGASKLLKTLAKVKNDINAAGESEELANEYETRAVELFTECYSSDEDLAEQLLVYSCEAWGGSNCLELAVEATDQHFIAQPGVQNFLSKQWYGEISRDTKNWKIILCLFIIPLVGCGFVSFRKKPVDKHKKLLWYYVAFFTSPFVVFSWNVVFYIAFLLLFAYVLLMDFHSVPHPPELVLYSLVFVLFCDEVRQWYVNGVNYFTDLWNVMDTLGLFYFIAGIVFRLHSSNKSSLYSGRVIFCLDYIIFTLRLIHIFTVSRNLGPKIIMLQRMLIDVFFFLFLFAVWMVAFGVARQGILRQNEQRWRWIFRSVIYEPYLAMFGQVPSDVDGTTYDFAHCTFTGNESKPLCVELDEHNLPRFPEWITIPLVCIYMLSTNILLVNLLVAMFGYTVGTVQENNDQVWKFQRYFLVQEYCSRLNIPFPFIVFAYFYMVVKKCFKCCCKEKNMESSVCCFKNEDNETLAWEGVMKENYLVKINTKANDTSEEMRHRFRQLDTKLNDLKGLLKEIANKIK
# T1 sequence (O75762 whole entry): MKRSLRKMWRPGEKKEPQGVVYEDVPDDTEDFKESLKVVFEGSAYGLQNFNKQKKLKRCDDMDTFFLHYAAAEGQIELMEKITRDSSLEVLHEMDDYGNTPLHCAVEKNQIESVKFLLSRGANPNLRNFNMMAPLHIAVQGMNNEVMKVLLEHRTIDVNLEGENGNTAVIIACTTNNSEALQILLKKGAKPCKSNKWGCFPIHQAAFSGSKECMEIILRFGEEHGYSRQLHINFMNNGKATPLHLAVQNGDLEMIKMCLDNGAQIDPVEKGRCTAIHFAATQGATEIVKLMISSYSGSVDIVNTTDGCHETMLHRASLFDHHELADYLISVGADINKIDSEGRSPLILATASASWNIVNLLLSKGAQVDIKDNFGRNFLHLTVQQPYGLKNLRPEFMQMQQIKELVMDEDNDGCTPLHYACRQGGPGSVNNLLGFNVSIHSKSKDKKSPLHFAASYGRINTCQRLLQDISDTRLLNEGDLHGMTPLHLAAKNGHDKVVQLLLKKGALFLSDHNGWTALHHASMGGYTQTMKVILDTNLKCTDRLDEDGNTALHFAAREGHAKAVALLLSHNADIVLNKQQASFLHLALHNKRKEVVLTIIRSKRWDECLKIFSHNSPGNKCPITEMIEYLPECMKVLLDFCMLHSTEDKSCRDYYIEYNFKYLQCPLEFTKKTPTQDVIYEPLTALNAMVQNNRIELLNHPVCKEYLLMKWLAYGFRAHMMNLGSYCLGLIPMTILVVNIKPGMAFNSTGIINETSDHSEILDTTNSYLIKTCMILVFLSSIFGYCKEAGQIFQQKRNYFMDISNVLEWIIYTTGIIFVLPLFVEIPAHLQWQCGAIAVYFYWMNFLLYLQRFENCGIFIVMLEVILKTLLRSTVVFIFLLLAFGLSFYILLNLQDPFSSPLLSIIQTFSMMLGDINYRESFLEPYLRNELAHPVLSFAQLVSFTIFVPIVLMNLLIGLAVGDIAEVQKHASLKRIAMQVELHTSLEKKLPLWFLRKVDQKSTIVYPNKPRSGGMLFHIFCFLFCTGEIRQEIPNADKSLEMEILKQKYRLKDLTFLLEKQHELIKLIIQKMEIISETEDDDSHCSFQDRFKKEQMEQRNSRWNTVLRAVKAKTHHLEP
# T2 sequence (Q8NER1 whole entry): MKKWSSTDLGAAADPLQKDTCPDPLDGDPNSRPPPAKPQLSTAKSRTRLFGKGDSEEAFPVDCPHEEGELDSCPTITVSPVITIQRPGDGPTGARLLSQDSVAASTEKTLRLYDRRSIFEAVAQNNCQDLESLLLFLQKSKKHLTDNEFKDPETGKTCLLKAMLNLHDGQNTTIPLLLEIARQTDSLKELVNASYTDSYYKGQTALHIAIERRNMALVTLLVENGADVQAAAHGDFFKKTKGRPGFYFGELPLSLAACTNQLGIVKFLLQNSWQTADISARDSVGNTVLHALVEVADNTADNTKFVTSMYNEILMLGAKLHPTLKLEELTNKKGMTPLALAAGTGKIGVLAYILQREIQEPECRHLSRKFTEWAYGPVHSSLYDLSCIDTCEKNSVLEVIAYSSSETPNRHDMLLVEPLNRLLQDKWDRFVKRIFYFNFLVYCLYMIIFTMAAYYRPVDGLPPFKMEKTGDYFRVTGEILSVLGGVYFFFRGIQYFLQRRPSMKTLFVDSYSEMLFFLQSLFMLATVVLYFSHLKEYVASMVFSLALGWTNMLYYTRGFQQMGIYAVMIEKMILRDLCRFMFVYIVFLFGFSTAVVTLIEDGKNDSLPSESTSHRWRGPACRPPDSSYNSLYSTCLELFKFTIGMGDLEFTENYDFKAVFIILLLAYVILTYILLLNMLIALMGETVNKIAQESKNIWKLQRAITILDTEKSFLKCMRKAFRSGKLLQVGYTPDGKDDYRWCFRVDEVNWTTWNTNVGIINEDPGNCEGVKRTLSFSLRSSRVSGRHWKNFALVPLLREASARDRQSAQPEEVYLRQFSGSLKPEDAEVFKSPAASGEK
Compound,activation at 10 µM (human TRPA1) [%],activation at 10 µM (human TRPV1) [%],activation at 10 µM (human TRPV4) [%],activation at 10 µM (human TRPM8) [%],other results
CCN1C[C@]2(COC)[C@H](O)C[C@H](OC)[C@@]34[C@@H]5C[C@@]6(O)[C@H](OC(=O)c7ccccc7)[C@@H]5[C@@](O)([C@@H]([C@H](OC)[C@H]23)[C@@H]14)[C@@H](O)[C@@H]6OC [Benzoylaconitine],,,,,% of Activation Compared to Positive Control against Each Subfamily of TRP Channel TRPA1 (human TRPA1): 3%; % of Activation Compared to Positive Control against Each Subfamily of TRP Channel TRPV1 (human TRPV1): −0.2%; % of Activation Compared to Positive Control against Each Subfamily of TRP Channel TRPV4 (human TRPV4): 0.0%; % of Activation Compared to Positive Control against Each Subfamily of TRP Channel TRPM8 (human TRPM8): 3.6%
O=C(O)CNC(=O)c1ccccc1 [Hippuric acid],13,1,2.8,7.5,
"CN[C@@H](C)[C@@H](O)c1ccccc1 [Pseudoephedrine, (S,S)-(+)-pseudoephedrine, reference compound]",4,-0.2,-0.3,2.8,
COc1cc(O)cc2c1cc([N+](=O)[O-])c1c(C(=O)O)cc3c(c12)OCO3 [Aristolochic acid Iva],,,,,"AR-Treated Rat Plasma (detection of compound) [1]: + (The number of plus signs represents the sample number in which the compound was detected among AR-treated rat plasma (n = 1) and MBST-treated rat plasma (n = 3)); MBST-Treated Rat Plasma (detection of compound) ([1]; rat plasma 1 h after oral 2 g/kg MBST, n = 3, LC-HRMS): + + + (The number of plus signs represents the sample number in which the compound was detected among AR-treated rat plasma (n = 1) and MBST-treated rat plasma (n = 3))"
"Oc1ccc(C2OCC3C(c4ccc5c(c4)OCO5)OCC23)cc1O (stereo not drawn) [(7α,7′β,8α,8′α)-3,4-Methylenedioxy-3′,4′-dihydroxy-7,9′:7′,9-diepoxylignane]",,,,,AR-Treated Rat Plasma (detection of compound) [1]: + (The number of plus signs represents the sample number in which the compound was detected among AR-treated rat plasma (n = 1) and MBST-treated rat plasma (n = 3))
O=c1cc(-c2ccc(O)cc2)oc2c([C@@H]3O[C@H](CO)[C@@H](O)[C@H](O)[C@H]3O)c(O)c([C@@H]3O[C@H](CO)[C@@H](O)[C@H](O)[C@H]3O)c(O)c12 [Vicenin-2],,,,,% of Activation Compared to Positive Control against Each Subfamily of TRP Channel TRPA1 (human TRPA1): 25%; % of Activation Compared to Positive Control against Each Subfamily of TRP Channel TRPV1 (human TRPV1): 1.8%; % of Activation Compared to Positive Control against Each Subfamily of TRP Channel TRPV4 (human TRPV4): 5.0%; % of Activation Compared to Positive Control against Each Subfamily of TRP Channel TRPM8 (human TRPM8): 6.5%
Oc1cc(O)c2c(c1)O[C@H](c1cc(O)c(O)c(O)c1)[C@H](O)C2 [Epigallocatechin],2,-0.2,0.1,4.8,
O=c1cc(-c2ccc(O)cc2)oc2cc(O)c([C@@H]3O[C@H](CO)[C@@H](O)[C@H](O)[C@H]3O)c(O)c12 [Isovitexin],18,0.2,2.3,4.3,
